Here are results for 28 compounds from patent US20230286970A1, “NOVEL OXADIAZOLE-BASED SELECTIVE HDAC6 INHIBITORS” (ITALFARMACO S.P.A., priority 2020, published 2023).

The target of one experiment is recombinant human HDAC6 (Homo sapiens (Human), UniProt Q9UBN7). The experiment can be described thus: Enzymatic screening, HDAC6 inhibition (fluorogenic FdL_G substrate). It counts as biochemical. The gist of the method: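 Enzyme was preincubated with compound (8 doses, triplicate, 1% DMSO) in 25 mM Tris-HCl pH 8, 130 mM NaCl, 0.05% Tween-20, 10% glycerol, with BSA. A FLUOR DE LYS-Green substrate was then added, and fluorescence was read after developer plus 2 μM TSA.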

The next experiment addresses recombinant human HDAC1 (Homo sapiens (Human), UniProt Q13547). The experiment is described as follows: Enzymatic screening, HDAC1 inhibition (fluorogenic FdL_G substrate). It counts as biochemical. The gist of the method: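 Recombinant human HDAC1 inhibition was measured fluorometrically using the FLUOR DE LYS-Green (FdL_G) substrate. Compounds at 8 doses (1% DMSO final) in Tris-HCl pH 8 buffer with NaCl, Tween-20 and glycerol were preincubated in triplicate with enzyme and 1 mg/mL BSA, then given substrate. Developer I plus 2 μM TSA was added, and fluorescence read after 25 minutes in the dark.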

Structures are written as SMILES.

recombinant human HDAC1, sequence (Q13547 whole entry): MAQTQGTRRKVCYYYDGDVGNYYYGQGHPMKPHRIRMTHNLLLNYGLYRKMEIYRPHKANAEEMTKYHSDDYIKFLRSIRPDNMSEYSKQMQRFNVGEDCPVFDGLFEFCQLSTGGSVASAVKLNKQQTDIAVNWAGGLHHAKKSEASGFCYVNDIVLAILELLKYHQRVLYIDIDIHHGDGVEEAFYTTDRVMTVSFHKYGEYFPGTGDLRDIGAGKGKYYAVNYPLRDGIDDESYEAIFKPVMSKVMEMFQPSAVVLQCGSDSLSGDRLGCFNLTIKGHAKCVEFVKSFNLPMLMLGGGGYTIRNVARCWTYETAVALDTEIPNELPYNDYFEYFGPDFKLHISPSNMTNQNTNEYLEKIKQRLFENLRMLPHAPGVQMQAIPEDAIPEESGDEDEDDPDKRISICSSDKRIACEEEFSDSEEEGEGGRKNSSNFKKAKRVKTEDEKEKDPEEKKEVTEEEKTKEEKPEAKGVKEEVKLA
recombinant human HDAC6, sequence (Q9UBN7 whole entry): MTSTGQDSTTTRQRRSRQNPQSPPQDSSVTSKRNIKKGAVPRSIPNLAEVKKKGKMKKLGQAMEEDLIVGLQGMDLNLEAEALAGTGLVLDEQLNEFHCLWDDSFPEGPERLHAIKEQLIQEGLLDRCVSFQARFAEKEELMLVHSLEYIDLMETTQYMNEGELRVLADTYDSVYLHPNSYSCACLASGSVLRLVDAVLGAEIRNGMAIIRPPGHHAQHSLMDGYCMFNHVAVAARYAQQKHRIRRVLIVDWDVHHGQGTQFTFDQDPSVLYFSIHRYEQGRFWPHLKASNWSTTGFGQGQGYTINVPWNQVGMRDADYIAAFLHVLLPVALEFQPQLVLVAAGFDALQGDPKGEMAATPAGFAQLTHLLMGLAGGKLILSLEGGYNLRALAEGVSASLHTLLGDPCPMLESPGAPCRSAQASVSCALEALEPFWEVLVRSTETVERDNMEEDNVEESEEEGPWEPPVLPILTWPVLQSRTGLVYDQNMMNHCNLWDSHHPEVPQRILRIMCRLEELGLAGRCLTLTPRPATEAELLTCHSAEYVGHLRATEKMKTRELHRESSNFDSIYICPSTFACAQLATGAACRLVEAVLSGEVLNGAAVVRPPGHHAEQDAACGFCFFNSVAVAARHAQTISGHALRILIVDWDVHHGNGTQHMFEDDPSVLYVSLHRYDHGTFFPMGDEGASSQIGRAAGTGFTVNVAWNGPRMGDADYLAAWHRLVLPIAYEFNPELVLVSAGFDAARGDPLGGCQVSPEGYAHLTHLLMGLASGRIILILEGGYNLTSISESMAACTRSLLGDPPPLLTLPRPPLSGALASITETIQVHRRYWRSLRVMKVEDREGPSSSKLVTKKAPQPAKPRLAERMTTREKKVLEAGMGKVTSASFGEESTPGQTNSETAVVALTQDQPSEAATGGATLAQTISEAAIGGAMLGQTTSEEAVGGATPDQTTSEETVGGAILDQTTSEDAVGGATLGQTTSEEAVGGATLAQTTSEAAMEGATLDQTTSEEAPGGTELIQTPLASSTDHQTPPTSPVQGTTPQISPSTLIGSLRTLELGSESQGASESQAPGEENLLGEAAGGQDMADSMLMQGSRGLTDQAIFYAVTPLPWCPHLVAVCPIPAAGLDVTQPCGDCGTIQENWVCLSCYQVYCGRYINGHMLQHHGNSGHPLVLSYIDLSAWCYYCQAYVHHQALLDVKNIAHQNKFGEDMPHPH

Consider `O=C1NCc2ccc(-c3cn(Cc4ccc(-c5nnc(C(F)F)o5)cc4)cn3)cc21` [compound 294, 6-(1-(4-(5-(difluoromethyl)-1,3,4-oxadiazol-2-yl)benzyl)-1H-imidazol-4-yl)isoindolin-1-one], for which the IC50 (in general, the concentration at which inhibition is half-maximal) on recombinant human HDAC6 is 78 nM; at recombinant human HDAC1 it was more than 200 µM.

Take `Nc1ccc(-c2cn(Cc3c(F)cc(-c4nnc(C(F)F)o4)cc3F)nn2)cc1` [compound 296, 4-(1-(4-(5-(difluoromethyl)-1,3,4-oxadiazol-2-yl)-2,6-difluorobenzyl)-1H-1,2,3-triazol-4-yl)aniline]: the IC50 is 34 nM at recombinant human HDAC6 and more than 200 µM at recombinant human HDAC1.

For `Nc1cccc(-c2cn(Cc3c(F)cc(-c4nnc(C(F)F)o4)cc3F)nn2)c1` [compound 297, 3-(1-(4-(5-(difluoromethyl)-1,3,4-oxadiazol-2-yl)-2,6-difluorobenzyl)-1H-1,2,3-triazol-4-yl)aniline], the values for the IC50 at recombinant human HDAC6 and at recombinant human HDAC1 were 37 nM and 65 µM, respectively.

For the compound `O=C1NCc2ccc(-c3nnnn3Cc3ncc(-c4nnc(C(F)F)o4)cn3)cc21` [compound 298, 6-(1-((5-(5-(difluoromethyl)-1,3,4-oxadiazol-2-yl)pyrimidin-2-yl)methyl)-1H-tetrazol-5-yl)isoindolin-1-one], the IC50 at recombinant human HDAC6 was 151 nM; on recombinant human HDAC1, more than 200 µM.

Turning to `FC(F)c1nnc(-c2cnc(Cn3nnnc3-c3cccs3)nc2)o1` [compound 299, 2-(difluoromethyl)-5-(2-((5-(thiophen-2-yl)-1H-tetrazol-1-yl)methyl)pyrimidin-5-yl)-1,3,4-oxadiazole], the IC50 at recombinant human HDAC6 was 110 nM; on recombinant human HDAC1 it was more than 200 µM.

Consider `Nc1nc2cc(-c3cn(Cc4ccc(-c5nnc(C(F)F)o5)cc4)cn3)ccc2s1` [compound 300, 5-(1-(4-(5-(difluoromethyl)-1,3,4-oxadiazol-2-yl)benzyl)-1H-imidazol-4-yl)benzo[d]thiazol-2-amine], for which the IC50 at recombinant human HDAC6 was 67 nM; at recombinant human HDAC1, more than 200 µM.

As to `CS(=O)(=O)NCC(c1ccc(-c2nnc(C(F)F)o2)cc1)n1cc(-c2ccc(N)nc2)nn1` (centres unmarked) [compound 302, N-[2-[4-(6-aminopyridin-3-yl)triazol-1-yl]-2-[4-[5-(difluoromethyl)-1,3,4-oxadiazol-2-yl]phenyl]ethyl]methanesulfonamide], the IC50 on recombinant human HDAC6 is 49 nM; on recombinant human HDAC1, more than 1000 µM.

Regarding `Nc1ccc(-c2cn(C(CCCN3CCCCC3)c3ccc(-c4nnc(C(F)F)o4)cc3)nn2)cn1` (centres unmarked) [compound 303, 5-[1-[1-[4-[5-(difluoromethyl)-1,3,4-oxadiazol-2-yl]phenyl]-4-piperidin-1-ylbutyl]triazol-4-yl]pyridin-2-amine], the IC50 on recombinant human HDAC6 is 62 nM; at recombinant human HDAC1 it was more than 1000 µM.

As for `Nc1ccc(-c2cn(Cc3ncc(-c4nnc(C(F)F)o4)cc3F)nn2)cn1` [compound 304, 5-[1-[[5-[5-(difluoromethyl)-1,3,4-oxadiazol-2-yl]-3-fluoropyridin-2-yl]methyl]triazol-4-yl]pyridin-2-amine], the values for the IC50 at recombinant human HDAC6 and on recombinant human HDAC1 were 35 nM and more than 1000 µM, respectively.

For `Nc1nc2ccc(-c3cn(Cc4ccc(-c5nnc(C(F)F)o5)cc4)cn3)cc2s1` [compound 306, 6-[1-[[4-[5-(difluoromethyl)-1,3,4-oxadiazol-2-yl]phenyl]methyl]imidazol-4-yl]-1,3-benzothiazol-2-amine], the IC50 on recombinant human HDAC6 is 32 nM; on recombinant human HDAC1 it was more than 1000 µM.

In the case of `Nc1nc2ccc(-c3cn(Cc4ccc(-c5nnc(C(F)F)o5)cn4)cn3)cc2s1` [compound 307, 6-[1-[[5-[5-(difluoromethyl)-1,3,4-oxadiazol-2-yl]pyridin-2-yl]methyl]imidazol-4-yl]-1,3-benzothiazol-2-amine], the figures for the IC50 at recombinant human HDAC6 and at recombinant human HDAC1 were 11 nM and more than 1000 µM, respectively.

On to `Nc1nc2cc(-c3cn(Cc4ccc(-c5nnc(C(F)F)o5)cn4)cn3)ccc2o1` [compound 308, 5-(1-((5-(5-(difluoromethyl)-1,3,4-oxadiazol-2-yl)pyridin-2-yl)methyl)-1H-imidazol-4-yl)benzo[d]oxazol-2-amine], for which the figures for the concentration for half-maximal inhibition (IC50) on recombinant human HDAC6 and at recombinant human HDAC1 were 15 nM and more than 1000 µM, respectively.

For the compound `CS(=O)(=O)NCC[C@@H](c1ccc(-c2nnc(C(F)F)o2)cc1)n1cc(-c2ccc(N)nc2)nn1` [compound 310, N-[(3S)-3-[4-(6-aminopyridin-3-yl)triazol-1-yl]-3-[4-[5-(difluoromethyl)-1,3,4-oxadiazol-2-yl]phenyl]propyl]methanesulfonamide], the values for the IC50 on recombinant human HDAC6 and on recombinant human HDAC1 were 138 nM and more than 1000 µM, respectively.

In the case of `CS(=O)(=O)NCC[C@H](c1ccc(-c2nnc(C(F)F)o2)cc1)n1cc(-c2ccc(N)nc2)nn1` [compound 311, N-[(3R)-3-[4-(6-aminopyridin-3-yl)triazol-1-yl]-3-[4-[5-(difluoromethyl)-1,3,4-oxadiazol-2-yl]phenyl]propyl]methanesulfonamide], the figures for the IC50 at recombinant human HDAC6 and at recombinant human HDAC1 were 25 nM and more than 1000 µM, respectively.

On to `Nc1ccc(-c2cn([C@@H](CN3CCCC3)c3ccc(-c4nnc(C(F)F)o4)cc3)nn2)cn1` [compound 312, 5-[1-[(1R)-1-[4-[5-(difluoromethyl)-1,3,4-oxadiazol-2-yl]phenyl]-2-pyrrolidin-1-ylethyl]triazol-4-yl]pyridin-2-amine], for which the IC50 is 41 nM at recombinant human HDAC6 and more than 1000 µM at recombinant human HDAC1.

As for `Nc1ccc(-c2cn([C@H](CN3CCCC3)c3ccc(-c4nnc(C(F)F)o4)cc3)nn2)cn1` [compound 313, 5-[1-[(1S)-1-[4-[5-(difluoromethyl)-1,3,4-oxadiazol-2-yl]phenyl]-2-pyrrolidin-1-ylethyl]triazol-4-yl]pyridin-2-amine], the IC50 at recombinant human HDAC6 is 308 nM; at recombinant human HDAC1, more than 1000 µM.

For `Nc1ccc(-c2cn([C@@H](CO)c3ccc(-c4nnc(C(F)F)o4)cc3)nn2)cn1` [compound 314, (2R)-2-[4-(6-aminopyridin-3-yl)triazol-1-yl]-2-[4-[5-(difluoromethyl)-1,3,4-oxadiazol-2-yl]phenyl]ethanol], the IC50 at recombinant human HDAC6 is 22 nM; at recombinant human HDAC1 it was more than 1000 µM.

Regarding `Nc1ccc(-n2cc(Cc3ccc(-c4nnc(C(F)F)o4)cc3)nn2)cc1` [compound 315, 4-[4-[[4-[5-(difluoromethyl)-1,3,4-oxadiazol-2-yl]phenyl]methyl]triazol-1-yl]aniline], the half-inhibitory concentration (IC50) is 668 nM on recombinant human HDAC6 and more than 1000 µM on recombinant human HDAC1.

`FC(F)c1nnc(-c2ccc(Cc3cn(-c4ccc(NC5=NCCN5)cc4)nn3)cc2)o1` [compound 316, N-(4-(4-(4-(5-(difluoromethyl)-1,3,4-oxadiazol-2-yl)benzyl)-1H-1,2,3-triazol-1-yl)phenyl)-4,5-dihydro-1H-imidazol-2-amine]: the IC50 is 56 nM on recombinant human HDAC6 and more than 1000 µM at recombinant human HDAC1.

Turning to `Nc1ncnc2cc(-c3cn(Cc4ccc(-c5nnc(C(F)F)o5)cn4)nn3)ccc12` [compound 317, 7-[1-[[5-[5-(difluoromethyl)-1,3,4-oxadiazol-2-yl]pyridin-2-yl]methyl]triazol-4-yl]quinazolin-4-amine], the values for the IC50 at recombinant human HDAC6 and on recombinant human HDAC1 were 34 nM and more than 1000 µM, respectively.

On to `O=C1NCc2ccc(-c3cnn(Cc4ccc(-c5nnc(C(F)F)o5)cn4)c3)cc21` [compound 318, 6-[1-[[5-[5-(difluoromethyl)-1,3,4-oxadiazol-2-yl]pyridin-2-yl]methyl]pyrazol-4-yl]-2,3-dihydroisoindol-1-one], for which the results for the IC50 at recombinant human HDAC6 and on recombinant human HDAC1 were 40 nM and more than 1000 µM, respectively.

In the case of `O=C1NCc2ccc(-c3cnn(Cc4ccc(-c5nnc(C(F)F)o5)cc4)c3)cc21` [compound 319, 6-[1-[[4-[5-(difluoromethyl)-1,3,4-oxadiazol-2-yl]phenyl]methyl]pyrazol-4-yl]-2,3-dihydroisoindol-1-one], the IC50 was 87 nM at recombinant human HDAC6 and more than 1000 µM at recombinant human HDAC1.

Regarding `Cn1c(N)nc2cc(-c3cnn(Cc4ccc(-c5nnc(C(F)F)o5)cn4)c3)ccc21` [compound 320, 5-[1-[[5-[5-(difluoromethyl)-1,3,4-oxadiazol-2-yl]pyridin-2-yl]methyl]pyrazol-4-yl]-1-methylbenzimidazol-2-amine], the results for the IC50 at recombinant human HDAC6 and on recombinant human HDAC1 were 28 nM and more than 1000 µM, respectively.

On to `Cn1c(N)nc2cc(-c3cnn(Cc4ccc(-c5nnc(C(F)F)o5)cc4)c3)ccc21` [compound 321, 5-[1-[[4-[5-(difluoromethyl)-1,3,4-oxadiazol-2-yl]phenyl]methyl]pyrazol-4-yl]-1-methylbenzimidazol-2-amine], for which the IC50 at recombinant human HDAC6 is 98 nM; at recombinant human HDAC1, more than 1000 µM.

As for `Nc1nc2cc(-c3cn(Cc4ccc(-c5nnc(C(F)F)o5)cn4)cn3)ccc2s1` [compound 322, 5-[1-[[5-[5-(difluoromethyl)-1,3,4-oxadiazol-2-yl]pyridin-2-yl]methyl]imidazol-4-yl]-1,3-benzothiazol-2-amine], the IC50 on recombinant human HDAC6 was 17 nM; on recombinant human HDAC1, more than 1000 µM.

`Nc1ccc(-c2cn(C(CCN3CCCC3)c3ccc(-c4nnc(C(F)F)o4)cc3)nn2)cn1` (centres unmarked) [compound 323, 5-(1-(1-(4-(5-(difluoromethyl)-1,3,4-oxadiazol-2-yl)phenyl)-3-(pyrrolidin-1-yl)propyl)-1H-1,2,3-triazol-4-yl)pyridin-2-amine]: the results for the IC50 at recombinant human HDAC6 and at recombinant human HDAC1 were 49 nM and 47.9 µM, respectively.

On to `CC1(C)C(=O)Nc2ccc(-c3cn(Cc4ccc(-c5nnc(C(F)F)o5)cn4)nn3)cc21` [compound 324, 5-[1-[[5-[5-(difluoromethyl)-1,3,4-oxadiazol-2-yl]pyridin-2-yl]methyl]triazol-4-yl]-3,3-dimethyl-1H-indol-2-one], for which the figures for the IC50 at recombinant human HDAC6 and at recombinant human HDAC1 were 18 nM and more than 1000 µM, respectively.

With `O=C1Cc2cc(-c3cn(Cc4ccc(-c5nnc(C(F)F)o5)cn4)nn3)ccc2N1` [compound 325, 5-[1-[[5-[5-(difluoromethyl)-1,3,4-oxadiazol-2-yl]pyridin-2-yl]methyl]triazol-4-yl]-1,3-dihydroindol-2-one], the IC50 at recombinant human HDAC6 was 26 nM; on recombinant human HDAC1, more than 1000 µM.
